Measurements reported in PubChem BioAssay (NCI).
Values joined by “and” are separate entries in the source; they are usually repeats but may differ in a detail not shown here. Equal values may be shown once.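 In this assay, cells in 96-well plates receive the compound at five concentrations for 48 hours. Endpoints are linearly interpolated between the surrounding concentrations. Here, GI50 denotes the concentration required for 50% inhibition of growth. TGI denotes the concentration required for complete inhibition of growth.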

Assays:
Test in all cases: NCI tumour cell line growth inhibition, 48 h
RPMI-8226 leukemia = tested on: RPMI-8226 leukemia
HL-60(TB) leukemia = tested on: HL-60(TB) leukemia
MCF7 breast = tested on: MCF7 breast
KM12 colon = tested on: KM12 colon
ACHN renal = tested on: ACHN renal
SR leukemia = tested on: SR leukemia
SF-268 CNS = tested on: SF-268 CNS
786-0 renal = tested on: 786-0 renal
DU-145 prostate = tested on: DU-145 prostate
SK-MEL-28 melanoma = tested on: SK-MEL-28 melanoma

O=C(Nc1cccc(-n2cc(-c3ccncc3)c(-c3ccc(O)c(Cl)c3)n2)c1)Nc1ccc(Cl)c(Cl)c1
GI50 (RPMI-8226 leukemia): 1.49 µM
TGI (RPMI-8226 leukemia): 4.54 µM
GI50 (HL-60(TB) leukemia): 2.71 µM
TGI (HL-60(TB) leukemia): 7.02 µM
GI50 (MCF7 breast): 1.88 µM
TGI (MCF7 breast): 5.23 µM
GI50 (KM12 colon): 1.4 µM
TGI (KM12 colon): 3.11 µM
GI50 (ACHN renal): 2.02 µM
TGI (ACHN renal): 7.81 µM
GI50 (SR leukemia): 0.43 µM
TGI (SR leukemia): 2.75 µM
GI50 (SF-268 CNS): 2.65 µM
TGI (SF-268 CNS): 16.6 µM
GI50 (786-0 renal): 1.58 µM
TGI (786-0 renal): 7.12 µM
GI50 (DU-145 prostate): 2.39 µM
TGI (DU-145 prostate): 12.1 µM
GI50 (SK-MEL-28 melanoma): 1.8 µM
TGI (SK-MEL-28 melanoma): 6.58 µM

N=C(N)c1ccc(OCCCCCOc2ccc(C(=N)N)cc2)cc1
GI50 (RPMI-8226 leukemia): 3.81 µM and 22.6 µM and 6.87 µM
TGI (RPMI-8226 leukemia): > 100 µM
GI50 (HL-60(TB) leukemia): 7.34 µM
TGI (HL-60(TB) leukemia): 24 µM and 56 µM and > 100 µM
GI50 (MCF7 breast): 2.59 µM
TGI (MCF7 breast): 14.4 µM and 25.9 µM and 28.5 µM
GI50 (KM12 colon): 2.5 µM and 6.35 µM and 14.3 µM
TGI (KM12 colon): 14.3 µM and 20.9 µM and 31 µM
GI50 (ACHN renal): 18.5 µM
TGI (ACHN renal): > 50 µM and 79.2 µM and > 100 µM
GI50 (SR leukemia): 13.3 µM and 13.6 µM and > 100 µM
TGI (SR leukemia): 44.4 µM and 58.5 µM and > 100 µM
GI50 (SF-268 CNS): 4.48 µM
TGI (SF-268 CNS): 13.6 µM and 34.2 µM and 37.7 µM
GI50 (786-0 renal): 12 µM
TGI (786-0 renal): > 50 µM and 27.1 µM and 31.8 µM
GI50 (DU-145 prostate): 5.64 µM
TGI (DU-145 prostate): 11.9 µM and 27.9 µM and 28.7 µM
GI50 (SK-MEL-28 melanoma): 5.46 µM
TGI (SK-MEL-28 melanoma): 12.3 µM and 21.9 µM and 49 µM
